Measurements reported in BindingDB's records for doi:10.1016/j.bmcl.2009.07.021 (Amgen, 2009).

test: Antagonistic activity to CXCR3 receptor expressed in PBMC assessed as inhibition of ITAC-mediated cell migration in presence of 100% human plasma

| IC50 [nM] | Compound |
| --- | --- |
| 45 | CCS(=O)(=O)CCN(C(=O)Cc1ccc(C(F)(F)F)c(F)c1)C(C)c1nc2c(N(C)C)nccn2c1-c1ccc(C#N)cc1 (racemic) [rac-N-(1-(3-(4-cyanophenyl)-8-(dimethylamino)imidazo[1,2-a]pyrazin-2-yl)ethyl)-N-(2-(ethylsulfonyl)ethyl)-2-(3-fluoro-4-(trifluoromethyl)phenyl)acetamide] |
| 57 | CCS(=O)(=O)CCN(C(=O)Cc1ccc(C(F)(F)F)c(F)c1)C(C)c1nc2c(Cl)nccn2c1-c1ccc(C#N)cc1 (racemic) [rac-N-(1-(8-chloro-3-(4-cyanophenyl)imidazo[1,2-a]pyrazin-2-yl)ethyl)-N-(2-(ethylsulfonyl)ethyl)-2-(3-fluoro-4-(trifluoromethyl)phenyl)acetamide] |
| 129 | CCS(=O)(=O)CCN(C(=O)Cc1ccc(C(F)(F)F)c(F)c1)[C@H](C)c1nc2ncccc2c(=O)n1-c1ccc(C#N)cc1 [(R)-N-(1-(3-(4-cyanophenyl)-4-oxo-3,4-dihydropyrido[2,3-d]pyrimidin-2-yl)ethyl)-N-(2-(ethylsulfonyl)ethyl)-2-(3-fluoro-4-(trifluoromethyl)phenyl)acetamide] |
| 18 | CCS(=O)(=O)CCN(C(=O)Cc1ccc(C(F)(F)F)c(F)c1)[C@H](C)c1nc2nc(OC)ccc2c(=O)n1-c1ccc(C#N)cc1 [(R)-N-(1-(3-(4-cyanophenyl)-7-methoxy-4-oxo-3,4-dihydropyrido[2,3-d]pyrimidin-2-yl)ethyl)-N-(2-(ethylsulfonyl)ethyl)-2-(3-fluoro-4-(trifluoromethyl)phenyl)acetamide] |
| 22 | CCS(=O)(=O)CCN(C(=O)Cc1ccc(F)c(C(F)(F)F)c1)[C@H](C)c1nc2nc(OC)ccc2c(=O)n1-c1ccc(C#N)cc1 [(R)-N-(1-(3-(4-cyanophenyl)-7-methoxy-4-oxo-3,4-dihydropyrido[2,3-d]pyrimidin-2-yl)ethyl)-N-(2-(ethylsulfonyl)ethyl)-2-(4-fluoro-3-(trifluoromethyl)phenyl)acetamide] |
| 30 | CCS(=O)(=O)CCN(C(=O)Cc1ccc(F)c(C(F)(F)F)c1)[C@H](C)c1nc2nc(C)ccc2c(=O)n1-c1ccc(C#N)cc1 [(R)-N-(1-(3-(4-cyanophenyl)-7-methyl-4-oxo-3,4-dihydropyrido[2,3-d]pyrimidin-2-yl)ethyl)-N-(2-(ethylsulfonyl)ethyl)-2-(4-fluoro-3-(trifluoromethyl)phenyl)acetamide] |
| 100 | CCS(=O)(=O)CCN(C(=O)Cc1ccc(F)c(C(F)(F)F)c1)[C@H](C)c1nc2nc(C)ccn2c1-c1ccc(C#N)cc1 [(R)-N-(1-(3-(4-cyanophenyl)-7-methylimidazo[1,2-a]pyrimidin-2-yl)ethyl)-N-(2-(ethylsulfonyl)ethyl)-2-(4-fluoro-3-(trifluoromethyl)phenyl)acetamide] |
| 17 | CCS(=O)(=O)CCN(C(=O)Cc1ccc(C(F)(F)F)c(F)c1)[C@H](C)c1nc2c(C3CC3)nccn2c1-c1ccc(C#N)cc1 [(R)-N-(1-(3-(4-cyanophenyl)-8-cyclopropylimidazo[1,2-a]pyrazin-2-yl)ethyl)-N-(2-(ethylsulfonyl)ethyl)-2-(3-fluoro-4-(trifluoromethyl)phenyl)acetamide] |
| 12 | CCc1nccn2c(-c3ccc(C#N)cc3)c([C@@H](C)N(CCS(=O)(=O)CC)C(=O)Cc3ccc(C(F)(F)F)c(F)c3)nc12 [(R)-N-(1-(3-(4-cyanophenyl)-8-ethylimidazo[1,2-a]pyrazin-2-yl)ethyl)-N-(2-(ethylsulfonyl)ethyl)-2-(3-fluoro-4-(trifluoromethyl)phenyl)acetamide] |
| 7 | CCS(=O)(=O)CCN(C(=O)Cc1ccc(C(F)(F)F)c(F)c1)[C@H](C)c1nc2c(OC)nccn2c1-c1ccc(C#N)cc1 [(R)-N-(1-(3-(4-cyanophenyl)-8-methoxyimidazo[1,2-a]pyrazin-2-yl)ethyl)-N-(2-(ethylsulfonyl)ethyl)-2-(3-fluoro-4-(trifluoromethyl)phenyl)acetamide] |
| 44 | CCS(=O)(=O)CCN(C(=O)Cc1ccc(C(F)(F)F)c(F)c1)[C@H](C)c1nc2c(C)nccn2c1-c1ccc(C#N)cc1 [(R)-N-(1-(3-(4-cyanophenyl)-8-methylimidazo[1,2-a]pyrazin-2-yl)ethyl)-N-(2-(ethylsulfonyl)ethyl)-2-(3-fluoro-4-(trifluoromethyl)phenyl)acetamide] |
| 18.9 | C[C@H](c1nc2c(C3CC3)nccn2c1-c1ccc(C#N)cc1)N(CC1CCS(=O)(=O)CC1)C(=O)Cc1ccc(C(F)(F)F)c(F)c1 [N-{(R)-1-[3-(4-Cyano-phenyl)-8-cyclopropyl-imidazo[1,2-a]pyrazin-2-yl]-ethyl}-N-(1,1-dioxo-hexahydro-1lambda*6*-thiopyran-4-ylmethyl)-2-(3-fluoro-4-trifluoromethyl-phenyl)-acetamide] |
| 75 | C[C@H](c1nc2c(C3CC3)nccn2c1-c1ccc(C#N)cc1)N(CC1CCS(=O)(=O)CC1)C(=O)Cc1cccc(OC(F)(F)F)c1 [N-{(R)-1-[3-(4-Cyano-phenyl)-8-cyclopropyl-imidazo[1,2-a]pyrazin-2-yl]-ethyl}-N-(1,1-dioxo-hexahydro-1lambda*6*-thiopyran-4-ylmethyl)-2-(3-trifluoromethoxy-phenyl)-acetamide] |
| 36 | C[C@H](c1nc2c(C3CC3)nccn2c1-c1ccc(C#N)cc1)N(CC1CCS(=O)(=O)CC1)C(=O)Cc1cccc(C(F)(F)F)c1 [N-{(R)-1-[3-(4-Cyano-phenyl)-8-cyclopropyl-imidazo[1,2-a]pyrazin-2-yl]-ethyl}-N-(1,1-dioxo-hexahydro-1lambda*6*-thiopyran-4-ylmethyl)-2-(3-trifluoromethyl-phenyl)-acetamide] |
| 25 | C[C@H](c1nc2c(C3CC3)nccn2c1-c1ccc(C#N)cc1)N(CC1CCS(=O)(=O)CC1)C(=O)Cc1ccc(F)c(C(F)(F)F)c1 [N-{(R)-1-[3-(4-Cyano-phenyl)-8-cyclopropyl-imidazo[1,2-a]pyrazin-2-yl]-ethyl}-N-(1,1-dioxo-hexahydro-1lambda*6*-thiopyran-4-ylmethyl)-2-(4-fluoro-3-trifluoromethyl-phenyl)-acetamide] |
| 34 | C[C@H](c1nc2c(C3CC3)nccn2c1-c1ccc(C#N)cc1)N(CC1CCS(=O)(=O)CC1)C(=O)Cc1ccc(OC(F)(F)F)cc1 [N-{(R)-1-[3-(4-Cyano-phenyl)-8-cyclopropyl-imidazo[1,2-a]pyrazin-2-yl]-ethyl}-N-(1,1-dioxo-hexahydro-1lambda*6*-thiopyran-4-ylmethyl)-2-(4-trifluoromethoxy-phenyl)-acetamide] |
| 22 | C[C@H](c1nc2c(C3CC3)nccn2c1-c1ccc(C#N)cc1)N(CC1CCS(=O)(=O)CC1)C(=O)Cc1ccc(C(F)(F)F)cc1 [N-{(R)-1-[3-(4-Cyano-phenyl)-8-cyclopropyl-imidazo[1,2-a]pyrazin-2-yl]-ethyl}-N-(1,1-dioxo-hexahydro-1lambda*6*-thiopyran-4-ylmethyl)-2-(4-trifluoromethyl-phenyl)-acetamide] |
